What was measured:
[1] = system: Cyp26a1-luc construct in MCF-7 cells; experiment: Retinoid activity assay, Cyp26a1-luc reporter in MCF-7 cells; type: cell-based; details: 24 hours, firefly relative to Renilla luciferase
From the text: This retinoid activity assay measures the ability of test compounds to induce expression of a transiently transfected RA sensitive reporter construct. In this assay, MCF-7 cells are transfected with a construct comprising an upstream promoter of the CYP26A1 gene containing 2 RA response elements driving expression of firefly luciferase (pCYP26A1-luc). Since CYP26A1 is highly inducible by RA in these cells, this construct serves as a sensitive reporter of retinod-like transcriptional activity.
MCF-7 cells were maintained in a RPMI-1640 medium containing 10% FBS. Exponentially growing cells were harvested by incubation in trypsin. Cells were then collected and plated in 24-well plates at 50,000 cells/well. Once cells reached 80-90% confluence (e.g., the next day), cells were transfected with two plasmids. The first plasmid was CYP26A1-luc construct (375 ng). The second plasmid was a control plasmid comprising the Renilla luciferase gene driven by constitutive thymidine kinase promoter (pRL-tk) (25 ng). Transfection was performed using FuGene 6 transfection reagent (Promega) with a 1:3 ratio of DNA:FuGene. 24 hours after transfection, cells were treated with test compounds diluted in DMSO in triplicate at 0.1, 1 and 10 μM final concentrations. As a positive control for reporter activation, cells were also treated with RA diluted in DMSO at the same concentrations listed above. DMSO treatment alone served as a negative control. After 24 hours of treatment, cells were harvested in passive lysis buffer (Promega) and luciferase activity in cell lysates were read using a luminometer. Data are expressed as the activity of firefly luciferase relative to Renilla luciferase (see Tables 3-5). For CYP26A1 inhibitor compounds, no activation of the reporter was detected, while the related retinoid-like compound induces luciferase expression.

CYP26A1 = CYP26A1 (Homo sapiens (Human), UniProt O43174); experiment: Cell-based inhibitor assay ([3H]-RA metabolism), CYP26A1 stably transfected HeLa cells; details: for IC50: HeLa cell-based assay, 3 hours; for CYP26A1 Rel. to keto: IC50 relative to ketoconazole
Chain of CYP26A1 (O43174 whole entry): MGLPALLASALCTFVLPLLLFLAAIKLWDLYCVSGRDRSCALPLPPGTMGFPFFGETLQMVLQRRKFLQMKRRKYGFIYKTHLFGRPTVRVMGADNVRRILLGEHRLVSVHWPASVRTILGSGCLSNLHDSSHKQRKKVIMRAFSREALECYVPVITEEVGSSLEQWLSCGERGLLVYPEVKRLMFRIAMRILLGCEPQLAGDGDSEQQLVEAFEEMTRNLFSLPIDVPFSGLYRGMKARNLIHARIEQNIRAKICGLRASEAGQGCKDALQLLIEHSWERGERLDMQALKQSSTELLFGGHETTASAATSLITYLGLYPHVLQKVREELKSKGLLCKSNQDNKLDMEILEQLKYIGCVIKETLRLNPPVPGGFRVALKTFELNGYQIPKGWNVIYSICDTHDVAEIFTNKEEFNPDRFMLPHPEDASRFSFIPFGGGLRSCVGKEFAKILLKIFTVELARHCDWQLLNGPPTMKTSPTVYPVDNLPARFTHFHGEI
Method: (§1) CYP26A1 or CYP26B1 stably transfected HeLa cells were maintained in Minimum Essential Medium (MEM) containing 10% fetal bovine serum (FBS) and 100 μg/mL hygromycin. Exponentially growing cells were harvested by incubation in trypsin. Cells were then collected and re-plated in 48-well culture plates at 5×10^5 cells in 0.2 mL of culture medium containing 0.05 μCi [^3H]-RA in the presence or absence of increasing concentrations of a test compound. The test compounds were diluted in dimethyl sulfoxide (DMSO) and then added in duplicate to wells at 0.01, 0.1, 1, 10 and 100 μM final concentration. As a positive control for inhibition of RA metabolism, cells were also incubated with ketoconazole at the same concentrations as above. Cells were incubated for 3 hours at 37° C. Retinoids were then extracted using the procedure of Bligh, et al., (1959), Canadian Journal of Biochemistry 37, 911-917, which was modified by using dichloromethane instead of chloroform. Each sample's water soluble radioactivity level was quantified using a β-scintillation counter (using Ecolume scintillation fluid, available from MP Biomedicals of Solon, Ohio, USA). IC50 values represented the concentration of inhibitor required to inhibit all trans-RA metabolism by 50%, and were derived from log transformed data.

CYP26B1 = CYP26B1 (Homo sapiens (Human), UniProt Q9NR63); experiment: Cell-based inhibitor assay ([3H]-RA metabolism), CYP26B1 stably transfected HeLa cells; details: for IC50: HeLa cell-based assay, 3 hours; for CYP26B1 Rel. to keto: IC50 relative to ketoconazole
Chain of CYP26B1 (Q9NR63 whole entry): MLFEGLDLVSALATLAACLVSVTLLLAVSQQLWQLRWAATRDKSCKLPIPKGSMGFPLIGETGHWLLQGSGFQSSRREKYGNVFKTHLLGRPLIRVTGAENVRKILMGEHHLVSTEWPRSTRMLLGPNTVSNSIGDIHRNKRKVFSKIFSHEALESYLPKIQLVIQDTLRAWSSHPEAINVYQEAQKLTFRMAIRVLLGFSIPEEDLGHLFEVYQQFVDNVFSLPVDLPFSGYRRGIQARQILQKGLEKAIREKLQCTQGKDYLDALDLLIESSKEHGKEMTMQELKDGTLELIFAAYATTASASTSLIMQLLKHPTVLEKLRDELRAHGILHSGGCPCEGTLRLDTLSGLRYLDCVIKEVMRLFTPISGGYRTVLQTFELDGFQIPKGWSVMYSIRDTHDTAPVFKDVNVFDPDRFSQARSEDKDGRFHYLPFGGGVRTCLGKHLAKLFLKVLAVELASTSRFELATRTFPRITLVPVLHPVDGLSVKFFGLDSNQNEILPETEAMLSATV
Method: as §1

MV4-11 cells [2] = experiment: Leukemia cell differentiation by FACS (CD11b+), MV4-11 cells with or without stroma; type: cell-based, human; details: RA alone, without stroma
Method: (§2) Many human non-APL AML cell lines are sensitive to RA-induced differentiation. However, co-culture of leukemic cells with bone marrow stromal cells can block this effect of RA. This assay tests the ability of CYP26 inhibitor compounds to overcome the protective effect that stromal cells have on leukemic cell differentiation. For these experiments, OP9 mouse bone marrow stromal cells are grown MEM-α containing 20% FBS, in 24 well plates until a cell monolayer is formed. OP9 cells are then irradiated (15Gy) using a GammaCell 20 cesium-137 source (located at Queen's University) in order to induce growth arrest. Leukemic cells are then added to the irradiated monolayers, or control wells without OP9 cells. AML cell lines (150,000 cells) are then plated onto OP9 monolayers in their appropriated growth medium; THP-1 RPMI-1640 medium containing 10% FBS; MDSL, RPMI-1640 medium containing 10% FBS and 10 ng/ml recombinant human IL-3; Kasumi-1, RPMI-1640 containing 20% FBS; MV4-11, IMDM containing 10% FBS. […] Stained cells are then sorted by FACS in a BD FACS Aria 3 flow cytometer (Queen's University) using FACS Diva software, to assess percentage of cells that are CD11b^+, the relative expression levels of CD11b (by median fluorescence intensity—MFI), or percentage of CD34^+CD38^− leukemic stem cells (LSCs). […]

human AML THP-1 cells = experiment: Leukemia cell differentiation by FACS (PE-CD11b), THP-1 cells with or without OP9 stroma; type: cell-based; details: RA alone
Method: Many human non-APL AML cell lines are sensitive to RA-induced differentiation. However, co-culture of leukemic cells with bone marrow stromal cells can block this effect of RA. This assay tests the ability of CYP26 inhibitor compounds to overcome the protective effect that stromal cells have on leukemic cell differentiation. For these experiments, OP9 mouse bone marrow stromal cells are grown MEM-α containing 20% FBS, in 24 well plates until a cell monolayer is formed. OP9 cells are then irradiated (15Gy) using a GammaCell 20 cesium-137 source (located at Queen's University) in order to induce growth arrest. Leukemic cells are then added to the irradiated monolayers, or control wells without OP9 cells. AML cell lines (150,000 cells) are then plated onto OP9 monolayers in their appropriated growth medium; THP-1 RPMI-1640 medium containing 10% FBS; MDSL, RPMI-1640 medium containing 10% FBS and 10 ng/ml recombinant human IL-3; Kasumi-1, RPMI-1640 containing 20% FBS; MV4-11, IMDM containing 10% FBS. Cells are then treated for 72 hours with DMSO (vehicle control), RA (0.1 μM for THP-1 and MV4-11 cells, and 1 μM for Kasumi-1 cells), test CYP26 inhibitor compound, or the combination of RA and inhibitor compound. After the treatment period, leukemic cells are collected and stained with fluorophore labeled antibodies against cell surface antigens indicative of myeloid differentiation (PE-CD11b), or of stem cell populations (FITC-CD34, PE-CD38); all antibodies are available from BD Biosciences. Stained cells are then sorted by FACS in a BD FACS Aria 3 flow cytometer (Queen's University) using FACS Diva software, to assess percentage of cells that are CD11b^+, the relative expression levels of CD11b (by median fluorescence intensity—MFI), or percentage of CD34^+CD38^− leukemic stem cells (LSCs). Results are typically presented as the average of triplicates.

MV4-11 cells [3] = experiment: Leukemia cell apoptosis (FITC-Annexin V), MV4-11 cells; type: cell-based, human; details: RA alone
Method: RA can also induce apoptosis is a variety of cell types, including AML cells. This experiment tests CYP26 inhibitor compounds for their ability to rescue RA-induced apoptosis in the presence of bone marrow stromal cells. For these experiments MV4-11 AML cells are plated as above, in the presence and absence of stromal monolayers. Cells are then treated for 48 hours with RA (0.1 μM). After the treatment period, cells are stained with a FITC-labeled annexin V antibody (available from Thermofisher Scientific), which binds to the surface of apoptotic cells. Cells are then sorted by FACS in a as above and data are expressed as percentage of annexin V^+ (apoptotic) cells.

kasumi-1 human AML cells = experiment: CD34+CD38- LSC analysis by FACS, Kasumi-1 cells with or without OP9 stroma; type: cell-based; details: 1 μM RA alone, without stroma
Method: as §2

rhino mice = experiment: Rhino mouse model of acne; type: in vivo; details: topical 10 nmol RA, 5 times per week, two weeks
Method: These experiments test the ability of CYP26 inhibitor compounds and other retinoids for potential anti-acne efficacy in a mouse model of acne. The rhino mouse model is a hairless mutant that develops skin lesions similar to acne, and has been used extensively as a model to assess new acne treatments, as well as in vivo activity of retinoids. Test compounds or RA were dissolved in acetone/10% DMSO, and 0.4 ml was applied topically to the dorsal skin of animals (2 male+2 female) once a day for five days per week, for two consecutive weeks. On the day after the last treatment, animals were sacrificed and skin was collected from the treated are and processed for histology, and epidermal sheets prepared for visualization of utriculi. Histological sections were prepared by paraffin embedding of formalin fixed samples, and stained with hematoxylin and eosin. Photographs were taken under a Nikon Eclipse E600 microscope using Q Imaging software at 20× magnification. Epidermal sheets were prepared by treating skin samples for 5 days in 0.5% acetic acid at 4° C. for 5 days, after which the dermal and epidermal layers were carefully separated, and the epidermis was then dehydrated with a series of ethanol treatments (70%, 80%, 90% and 100%). […]

THP-1 cells = experiment: Leukemia cell colony formation, THP-1 cells; type: cell-based, human; details: RA alone, without stroma
Method: This experiment is used to test the long-term proliferative ability of hematopoietic stem and progenitor cells as well as leukemic stem cells. Colony forming ability in long term cultures is indicative of stem/progenitor cell activity. […] For these experiments, bone marrow stromal and leukemic cell co-cultures are prepared as described above and treated with RA and/or CYP26 inhibitor compound for 72 hours. After the treatment period, leukemic cells are collected and re-plated in semi-solid methylcellulose medium to assess colony forming ability. 500 leukemic cells are plated per dish in 35 mm plates in 1.1 ml of MethoCult (available from STEMCELL Technologies, Vancouver, Canada). Triplicate plates are prepared per treatment, and cultures are grown for 14-16 days in a CO2 incubator. After the culture period colonies are counted under a dissecting microscope.

SMILES | Rel. Luciferase Activity (mean) ([1]; 0.1 μM) | Rel. Luciferase Activity (mean) ([1]; 1 μM) | Rel. Luciferase Activity (mean) ([1]; 10 μM) | IC50 (CYP26A1) [µM] | CYP26A1 Rel. to keto (CYP26A1) | IC50 (CYP26B1) [µM] | CYP26B1 Rel. to keto (CYP26B1) | Percentage of CD11b+ cells (MV4-11 cells [2]) | CD11b marker expression (MFI) (human AML THP-1 cells) | Apoptosis (Annexin V positive cells) (MV4-11 cells [3]) | Number of CD34+CD38- cells (LSCs) (kasumi-1 human AML cells) | Utriculi size and epidermis thickness (rhino mice) | Colony forming ability (THP-1 cells)
CC(C)(C)c1cccc(C(=O)Cc2ccc(/C=C/C(=O)O)cc2)c1 [Compound 025] | .0144 | .01 | .0128 | 45.6 | 21.7 | 17.9 | 4.2 | – | – | – | – | – | –
C=CCc1cc(C(=O)Cc2ccc(CC(=O)O)cc2)cc2c1OC(C)(C)CC2(C)C [Compound 027] | .0116 | .0099 | .0121 | 8.6 | 1.2 | 8.8 | 0.9 | – | – | – | – | – | –
CC1(C)CC(C)(C)c2cc(C(=O)Cc3ccc(CC(=O)O)cc3)cc(C3CC3)c2O1 [Compound 028] | .0165 | .0094 | .0144 | > 1000 | – | > 1000 | – | – | – | – | – | – | –
CC(C)(C)c1cccc(B(O)Oc2ccc(/C=C/C(=O)O)cc2)c1 [Compound 029] | .0386 | .0384 | .0333 | – | – | 54.9 | 5.7 | – | – | – | – | – | –
CC1(C)CC(C)(C)c2cc(B3Oc4ccc(CC(=O)O)cc4O3)cc(C3CC3)c2O1 [Compound 030] | .0411 | .0343 | .0385 | 31.5 | 20 | 88.1 | 9.2 | – | – | – | – | – | –
CC(C)(C)c1cccc(-c2cc3cc(/C=C/C(=O)O)ccc3o2)c1 [Compound 031] | .0039 | .0047 | .0034 | – | – | 18.3 | 2 | – | – | – | – | – | –
CC(C)(C)c1cccc(-c2cc3cc(CC(=O)O)ccc3o2)c1 [Compound 032] | .0019 | .0015 | .0004 | 8.6 | 1.2 | 2.3 | 0.3 | – | – | – | – | – | –
CC1(C)CC(C)(C)c2cc(-c3cc4cc(CC(=O)O)ccc4o3)cc(C3CC3)c2O1 [Compound 033] | .0024 | .0026 | .0027 | – | – | – | – | – | – | – | – | – | –
Cc1ccc(C(C)(C)C)cc1-c1cc2cc(/C=C/C(=O)O)ccc2[nH]1 [Compound 034] | – | – | – | 9.6 | 1.9 | 0.5 | 0.2 | – | – | – | – | – | –
CC1=C(/C=C/C(C)=C/C=C/C(C)=C/C(=O)O)C(C)(C)CCC1 [RA, retinoic acid, reference compound] | – | – | – | – | – | – | – | increased the percentage of | significantly increases expression of the CD11b marker | undergo apoptosis in response to RA | significantly reduced the number of these cells | reduction in the size of these utriculi, and a thickening of the epidermis | reduced in THP-1 cells by exposure to RA
